From patent US8436043B2 (Takeda Pharmaceutical Company Limited, priority 2008, dated 2013) come the findings set out here.

SMILES strings stand for the structures.

For one experiment, the target named is T1, human glucagon receptor (Homo sapiens, UniProt P47871).
T1 construct: made in house; host or cells: FreeStyle CHO cells, transient transfection with pMSRαneo/hGCGR; membrane fraction (35,000 rpm pellet)
T1 sequence (P47871 26-477): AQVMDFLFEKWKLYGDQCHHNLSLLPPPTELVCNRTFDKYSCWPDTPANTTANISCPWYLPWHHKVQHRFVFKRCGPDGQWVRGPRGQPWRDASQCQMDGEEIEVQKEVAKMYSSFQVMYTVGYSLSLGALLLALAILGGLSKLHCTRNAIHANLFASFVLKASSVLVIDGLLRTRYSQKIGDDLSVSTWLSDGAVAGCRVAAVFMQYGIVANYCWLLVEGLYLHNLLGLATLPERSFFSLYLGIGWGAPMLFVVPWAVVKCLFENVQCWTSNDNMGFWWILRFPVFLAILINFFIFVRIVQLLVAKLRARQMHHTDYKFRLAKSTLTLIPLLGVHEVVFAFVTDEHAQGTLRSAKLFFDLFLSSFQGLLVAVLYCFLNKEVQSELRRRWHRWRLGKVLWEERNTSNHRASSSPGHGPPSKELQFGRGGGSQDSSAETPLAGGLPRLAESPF
As to the kind of experiment: Glucagon binding inhibitory activity ([125I]-glucagon binding to glucagon receptor membrane protein). Particulars: human glucagon receptor membrane protein, [125I]-glucagon, 90 min room temperature. The protocol:
The glucagon binding inhibitory action of the compound of the present invention was evaluated by the following method.
(1) Cloning of Human Glucagon Receptor Gene
Human glucagon receptor gene was cloned by PCR reaction using human pancreas Marathon-ready cDNA (Clontech) as a template and the following primer set.
PCR reaction was performed using Advantage 2 polymerase (Clontech) and according to the attached protocol. The obtained PCR product was electrophoresed on an agarose gel (1%). An about 1.4 kb of DNA fragment containing a glucagon receptor gene was recovered from the gel and digested with restriction enzymes EcoRI and NotI. DNA treated with the restriction enzymes was electrophoresed on an agarose gel (1%). An about 1.4 kb of DNA fragment was recovered and ligated to plasmid pMSRαneo digested with restriction enzymes EcoRI and NotI to construct a human-type glucagon receptor expression plasmid DNA “pMSRαneo/hGCGR”.
(2) Preparation of Glucagon Receptor Membrane Protein
A human-type glucagon receptor was expressed using FreeStyle CHO Expression System (Invitrogen). A transient expression in FreeStyle CHO cell was performed using a human-type glucagon receptor expression plasmid DNA “pMSRαneo/hGCGR” and according to the manual attached to the FreeStyle CHO Expression System. The above-mentioned DNA was transfected and the cultured with shaking for 2 days (37° C., 8% CO2, 125 rpm). 2400 ml of culture medium was centrifuged at 2,000 rpm for 10 min and the cells were collected. The collected cells were washed with PBS, suspended in homogenate buffer [10 mM NaHCO3 (pH 7.4), 1 mM EDTA, Complete EDTA-free (Roche, 1 tablet/50 ml)] and disrupted by polytron cell disrupter (Kinematica AG). Disruption solution was centrifuged at 2,000 rpm for 10 min and the supernatant was collected.
(3) Measurement of Glucagon Binding Inhibitory Activity
The plate was stood for 90 min at room temperature. The reaction solution was transferred from the reaction plate to a 96 well unifilter GF/C plate (Perkin Elmer Inc.) using a cell harvester (Perkin Elmer Inc.) and the membrane fraction was collected on the filter by suction. The filter was presoaked in 2 mg/ml of polyethyleneimine to prevent non-specific adsorption of labeled ligand. The filter was washed 4 times with a reaction buffer and dried for 2 hr at 42° C. To each well was added 25 μl of scintillator (MicroScint0; Perkin Elmer Inc.), and the fluorescence amount was measured using a microplate scintillation counter (TopCount NXT™; Perkin Elmer Inc.).
In addition, the inhibitory rate (%) of the well added with the test compound (10 μM; containing 0.4% DMSO) was calculated, using the reaction rate of the well added only with 0.4% DMSO as 0% inhibitory rate, and the reaction rate of the well added with non-labeled glucagon (final concentration 1 μM) as 100% inhibitory rate.
Turning to `Cc1nn(Cc2ccccc2)cc1C(Nc1ccc(C(=O)NCCC(=O)O)cc1)C1CCCCC1` (stereo not drawn) [Example 41, 3-{[(4-{[(1-benzyl-3-methyl-1H-pyrazol-4-yl)(cyclohexyl)methyl]amino}phenyl)carbonyl]amino}propanoic acid], the IC50 (as a rule, the concentration that gives 50% inhibition) turned out to be 2300 nM.

The experiment is the same for the next values; noted with them: test compound 10 μM; 0.4% DMSO = 0%, non-labeled glucagon 1 μM = 100%; read-out: inhibitory rate (%) at 10 μM.
Turning to `Cc1cc(F)ccc1-n1cc(C(Nc2ccc(C(=O)N(C)CCC(=O)O)cc2)C2CCCCC2)c(C)n1` (stereo not drawn) [Example 22, 3-[{[4-({[1-(4-fluoro-2-methylphenyl)-3-methyl-1H-pyrazol-4-yl](cyclohexyl)methyl}amino)phenyl]carbonyl}(methyl)amino]-propanoic acid], the inhibition at 10 µM was found to be 61%.
The same measure, in the same setting: with `COc1ccc(-n2cc(C(Nc3ccc(C(=O)NCCC(=O)O)cc3)C3CCCCC3)c(C)n2)cc1` (stereo not drawn) [Example 23, 3-({[4-({cyclohexyl[1-(4-methoxyphenyl)-3-methyl-1H-pyrazol-4-yl]methyl}amino)phenyl]carbonyl}amino)propanoic acid] the figure was 71%.
Still for that read-out and setting: with `COc1ccc(-n2cc(C(Nc3ccc(C(=O)N(C)CCC(=O)O)cc3)C3CCCCC3)c(C)n2)cc1` (stereo not drawn) [Example 24, 3-[{[4-({cyclohexyl[1-(4-methoxyphenyl)-3-methyl-1H-pyrazol-4-yl]methyl}amino)phenyl]carbonyl}(methyl)amino]propanoic acid] the figure was 73%; with `Cc1nn(-c2ccc(OC(F)(F)F)cc2)cc1C(Nc1ccc(C(=O)NCCC(=O)O)cc1)C1CCCCC1` (stereo not drawn) [Example 25, 3-[({4-[(cyclohexyl{3-methyl-1-[4-(trifluoromethoxy)phenyl]-1H-pyrazol-4-yl}methyl)amino]phenyl}carbonyl)amino]propanoic acid], 78%.
Same read-out and setting: with `Cc1nn(-c2ccc(OC(F)(F)F)cc2)cc1C(Nc1ccc(C(=O)N(C)CCC(=O)O)cc1)C1CCCCC1` (stereo not drawn) [Example 26, 3-[({4-[(cyclohexyl{3-methyl-1-[4-(trifluoromethoxy)phenyl]-1H-pyrazol-4-yl}methyl)amino]phenyl}carbonyl)(methyl)amino]propanoic acid] the figure was 72%.
Take `Cc1nn(-c2ccc(C(F)(F)F)cc2)cc1C(Nc1ccc(C(=O)NCCC(=O)O)cc1)C1CCCCC1` (stereo not drawn) [Example 27, 3-[({4-[(cyclohexyl{3-methyl-1-[4-(trifluoromethyl)phenyl]-1H-pyrazol-4-yl}methyl)amino]phenyl}carbonyl)amino]propanoic acid]: the inhibition at 10 µM was 70%.
`Cc1nn(-c2ccc(C(F)(F)F)cc2)cc1C(Nc1ccc(C(=O)N(C)CCC(=O)O)cc1)C1CCCCC1` (stereo not drawn) [Example 28, 3-[({4-[(cyclohexyl{3-methyl-1-[4-(trifluoromethyl)phenyl]-1H-pyrazol-4-yl}methyl)amino]phenyl}carbonyl)(methyl)amino]propanoic acid]: the inhibition at 10 µM was 71%.
Still for that read-out and setting: with `COCc1nn(-c2ccc(C(F)(F)F)cn2)cc1C(Nc1ccc(C(=O)NCCC(=O)O)cc1)C1CCCCC1` (stereo not drawn) [Example 29, 3-[({4-[(cyclohexyl{3-(methoxymethyl)-1-[5-(trifluoromethyl)pyridin-2-yl]-1H-pyrazol-4-yl}methyl)amino]phenyl}carbonyl)amino]propanoic acid] the figure was 77%.
As for `COCc1nn(-c2ccc(C(F)(F)F)cn2)cc1C(Nc1ccc(C(=O)N(C)CCC(=O)O)cc1)C1CCCCC1` (stereo not drawn) [Example 30, 3-[({4-[(cyclohexyl{3-(methoxymethyl)-1-[5-(trifluoromethyl)pyridin-2-yl]-1H-pyrazol-4-yl}methyl)amino]phenyl}carbonyl)(methyl)amino]propanoic acid], the inhibition at 10 µM was determined as 75%.
The same measure, in the same setting: with `Cc1nn(-c2ncc(C(F)(F)F)cc2Cl)cc1C(Nc1ccc(C(=O)NCCC(=O)O)cc1)C1CCCCC1` (stereo not drawn) [Example 31, 3-{[(4-{[{1-[3-chloro-5-(trifluoromethyl)pyridin-2-yl]-3-methyl-1H-pyrazol-4-yl}(cyclohexyl)methyl]amino}phenyl)carbonyl]amino}propanoic acid] the figure was 67%; with `Cc1nn(-c2ncc(C(F)(F)F)cc2Cl)cc1C(Nc1ccc(C(=O)N(C)CCC(=O)O)cc1)C1CCCCC1` (stereo not drawn) [Example 32, 3-{[(4-{[{1-[3-chloro-5-(trifluoromethyl)pyridin-2-yl]-3-methyl-1H-pyrazol-4-yl}(cyclohexyl)methyl]amino}phenyl)carbonyl](methyl)amino}-propanoic acid], 59%; with `COCc1nn(-c2ccc(OC(F)(F)F)cc2)cc1C(Nc1ccc(C(=O)NCCC(=O)O)cc1)C1CCCCC1` (stereo not drawn) [Example 33, 3-[({4-[(cyclohexyl{3-(methoxymethyl)-1-[4-(trifluoromethoxy)phenyl]-1H-pyrazol-4-yl}methyl)amino]phenyl}carbonyl)amino]propanoic acid], 75%.
For the molecule `COCc1nn(-c2ccc(OC(F)(F)F)cc2)cc1C(Nc1ccc(C(=O)N(C)CCC(=O)O)cc1)C1CCCCC1` (stereo not drawn) [Example 34, 3-[({4-[(cyclohexyl{3-(methoxymethyl)-1-[4-(trifluoromethoxy)phenyl]-1H-pyrazol-4-yl}methyl)amino]phenyl}carbonyl)(methyl)amino]propanoic acid], the inhibition at 10 µM came out at 79%.
Same read-out and setting: in the case of `COCc1nn(-c2ccc(OC)cc2)cc1C(Nc1ccc(C(=O)NCCC(=O)O)cc1)C1CCCCC1` (stereo not drawn) [Example 35, 3-({[4-({cyclohexyl[3-(methoxymethyl)-1-(4-methoxyphenyl)-1H-pyrazol-4-yl]methyl}amino)phenyl]carbonyl}amino)propanoic acid] it was 75%; in that of `COCc1nn(-c2ccc(OC)cc2)cc1C(Nc1ccc(C(=O)N(C)CCC(=O)O)cc1)C1CCCCC1` (stereo not drawn) [Example 36, 3-[{[4-({cyclohexyl[3-(methoxymethyl)-1-(4-methoxyphenyl)-1H-pyrazol-4-yl]methyl}amino)phenyl]carbonyl}(methyl)amino]propanoic acid], 69%.
With `COCc1nn(-c2ccccc2)cc1C(Nc1ccc(C(=O)NCCC(=O)O)cc1)C1CCCCC1` (stereo not drawn) [Example 37, 3-({[4-({cyclohexyl[3-(methoxymethyl)-1-phenyl-1H-pyrazol-4-yl]methyl}amino)phenyl]carbonyl}amino)propanoic acid], the inhibition at 10 µM came out at 70%.
In the case of `COCc1nn(-c2ccccc2)cc1C(Nc1ccc(C(=O)N(C)CCC(=O)O)cc1)C1CCCCC1` (stereo not drawn) [Example 38, 3-[{[4-({cyclohexyl[3-(methoxymethyl)-1-phenyl-1H-pyrazol-4-yl]methyl}amino)phenyl]carbonyl}(methyl)amino]propanoic acid], the inhibition at 10 µM was determined as 53%.
With `Cc1nn(Cc2ccccc2)cc1C(Nc1ccc(C(=O)NCCC(=O)O)cc1)C1CCCCC1` (stereo not drawn) [Example 41, 3-{[(4-{[(1-benzyl-3-methyl-1H-pyrazol-4-yl)(cyclohexyl)methyl]amino}phenyl)carbonyl]amino}propanoic acid], the inhibition at 10 µM was 60%.
Take `CCC(C)(C)n1cc(C(Nc2ccc(C(=O)NCCC(=O)O)cc2)C2CCCCC2)c(C)n1` (stereo not drawn) [Example 43, 3-({[4-({cyclohexyl[1-(1,1-dimethylpropyl)-3-methyl-1H-pyrazol-4-yl]methyl}amino)phenyl]carbonyl}amino)propanoic acid]: the inhibition at 10 µM amounted to 54%.
Regarding `COc1ccc(-n2cc(C(CC(C)C)Nc3ccc(C(=O)NCCC(=O)O)cc3)c(C3CC3)n2)cc1` (stereo not drawn) [Example 44, 3-({[4-({1-[3-cyclopropyl-1-(4-methoxyphenyl)-1H-pyrazol-4-yl]-3-methylbutyl}amino)phenyl]carbonyl}amino)propanoic acid], the inhibition at 10 µM turned out to be 69%.
Same read-out and setting: in the case of `COc1ccc(-n2cc(C(CC(C)C)Nc3ccc(C(=O)N(C)CCC(=O)O)cc3)c(C3CC3)n2)cc1` (stereo not drawn) [Example 45, 3-[{[4-({1-[3-cyclopropyl-1-(4-methoxyphenyl)-1H-pyrazol-4-yl]-3-methylbutyl}amino)phenyl]carbonyl}(methyl)amino]propanoic acid] it was 60%; in that of `COc1ccc(-n2cc(C(Nc3ccc(C(=O)NCCC(=O)O)cc3)C3CCCCC3)c(C3CC3)n2)cc1` (stereo not drawn) [Example 46, 3-({[4-({cyclohexyl[3-cyclopropyl-1-(4-methoxyphenyl)-1H-pyrazol-4-yl]methyl}amino)phenyl]carbonyl}amino)propanoic acid], 71%; in that of `COc1ccc(-n2cc(C(Nc3ccc(C(=O)N(C)CCC(=O)O)cc3)C3CCCCC3)c(C3CC3)n2)cc1` (stereo not drawn) [Example 47, 3-[{[4-({cyclohexyl[3-cyclopropyl-1-(4-methoxyphenyl)-1H-pyrazol-4-yl]methyl}amino)phenyl]carbonyl}(methyl)amino]propanoic acid], 66%.
